Measurements taken from publication PMC8571951, “An activity‐based bioprobe differentiates a novel small molecule inhibitor from a LOXL2 antibody and provides renewed promise for anti‐fibrotic therapeutic strategies” (Clinical and Translational Medicine, 2021).

Tests used:
rh LOXL2 = molecular target: T1, rh LOXL2 (Homo sapiens, UniProt Q9Y4K0); assay: Jump dilution assay, rh LOXL2; type: biochemical
T1 sequence (Q9Y4K0 26-774): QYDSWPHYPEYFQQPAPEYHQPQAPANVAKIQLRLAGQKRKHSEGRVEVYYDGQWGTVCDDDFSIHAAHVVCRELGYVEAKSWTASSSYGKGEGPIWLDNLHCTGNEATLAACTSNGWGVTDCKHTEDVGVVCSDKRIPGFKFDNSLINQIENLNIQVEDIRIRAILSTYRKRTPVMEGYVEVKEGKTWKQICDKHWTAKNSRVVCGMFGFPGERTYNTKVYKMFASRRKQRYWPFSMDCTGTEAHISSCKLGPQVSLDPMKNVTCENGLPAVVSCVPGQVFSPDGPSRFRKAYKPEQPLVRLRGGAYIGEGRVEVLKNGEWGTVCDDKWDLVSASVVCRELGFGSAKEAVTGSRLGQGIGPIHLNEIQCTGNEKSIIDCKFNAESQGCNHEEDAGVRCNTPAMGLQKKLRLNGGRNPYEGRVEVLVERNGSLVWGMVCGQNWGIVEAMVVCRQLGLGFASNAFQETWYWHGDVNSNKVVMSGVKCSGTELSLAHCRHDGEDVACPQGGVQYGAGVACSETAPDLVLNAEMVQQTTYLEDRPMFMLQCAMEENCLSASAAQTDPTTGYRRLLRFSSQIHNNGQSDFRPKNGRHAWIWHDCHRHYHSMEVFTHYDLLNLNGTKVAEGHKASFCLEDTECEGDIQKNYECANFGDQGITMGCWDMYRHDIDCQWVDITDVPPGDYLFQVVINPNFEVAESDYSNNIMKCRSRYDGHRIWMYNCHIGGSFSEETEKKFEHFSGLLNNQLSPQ
Excerpt: FIGURE 1 Characteristics of the activity‐based probe (ABP) PXS‐5878. (A) Chemical structure of PXS‐5878, with functional subunits denoted with different colours. The fluoroallylamine moiety (blue) was designed to interact with the lysine tyrosylquinone (LTQ) co‐factor within the lysyl oxidase active sites. An extended linker (green) was incorporated to provide optimal separation between the reactive functional group and the tag, avoiding unfavourable steric hindrance. Biotin was selected as a tag, with higher sensitivity found to be achieved using a double tag (red), resulting in PXS‐5878 as the preferred ABP. (B) Concentration‐dependent inhibition of recombinant human (rh) lysyl oxidase‐like 1‐4 (LOXL1‐4) and native bovine LOX in a standard Amplex Red assay with 30 min pre‐incubation; n = 3–4 independent experiments, standard error of mean (SEM). Native bovine LOX was used as a surrogate for human LOX as both enzymes have similar pharmacology for fluoroallylamines.[2], [9] (C) Irreversible nature of PXS‐5878 enzyme inhibition confirmed using a jump dilution assay. Enzyme (rh LOXL1, rh LOXL2 or LOXL3) was pre‐incubated with 10 × IC50 of PXS‐5878 for 30 min, then diluted 100x and remaining activity assessed by Amplex Red assay. […] Each value is an average of three experiments. (D) Schematic representation of the assay development to detect lysyl oxidase activity by PXS‐5878 using a direct enzyme‐linked assay with lysyl oxidases as the target analyte. HRP: horseradish peroxidase; TMB: 3,3′,5,5′‐tetramethylbenzidine, a chromogenic substrate. […]
For fluoroallylamine-based inhibitors, replacement of fluorine with hydrogen (leading to the corresponding des-fluoro structures) results in a drop in potency and a switch from irreversible to reversible inhibition. […] (B) For PXS-5878, removal of the fluoro moiety in a simplified analogue results in a significant drop in potency for LOXL2, meaning (ir)reversibility cannot be accurately measured.

[1] = Pharmacokinetic profile in healthy human males; type: in vivo
Experimental: FIGURE 3 Inhibition of human lysyl oxidase‐like 2 (LOXL2) enzymatic activity by PXS‐5338 in clinical trials. (A) LOXL2 protein concentration in human serum is fairly constant over 24 h. Protein concentrations normalised to pre‐dose levels are plotted over time in healthy subjects treated with different doses (placebo, 100, 200 and 400 mg) of PXS‐5338. Mean ± SD with n = 6/time point. Phase 1 study with healthy male volunteers, ANZCTR ACTRN12617001444370. Legend of (A) also applies to (B) and (C). (B) Dose‐dependent inhibition of LOXL2 in plasma following a single oral dose of 100, 200 mg or 400 mg PXS‐5338. PXS‐5878/Simoa® platform used to measure the residual activity. Mean ± SD with n = 6/time point. (C) Pharmacokinetic (PK) profile of PXS‐5338 in healthy human males. […] (D) Correlation between LOXL2 protein concentration versus % inhibition. Activity data normalised to pre‐dose value.

Oral bioavailability = details: in vivo
[2] = test system: streptozotocin and high fat diet-induced model of NASH; assay: Streptozotocin and high fat diet-induced mouse model of NASH; type: in vivo
Experimental: PXS-5338 was evaluated in a 14-week mouse model of NASH (Takakura, Koido et al. 2014), dosing therapeutically at 10 mg/kg from weeks 8-12 and increasing to 30 mg/kg from weeks 12-14. […] Telmisartan served as a positive pharmacological control.

[3] = 10 mg/kg weeks 8-12, 30 mg/kg weeks 12-14

Row | SMILES | Mode of inhibition (reversible/irreversible) of LOXL2 (rh LOXL2) | Compound half-life in humans [1] | Oral bioavailability (Oral bioavailability) | Collagen content (hydroxyproline) [2, 3] | Fibrosis, fibrotic area (picrosirius red staining) [2, 3] | Hepatocyte ballooning [2, 3] | Immature and mature crosslinks (DHLNL and PYD) [2, 3] | NASH scoring ([2]; 10 mg/kg weeks 8-12, 30 mg/kg weeks 12-14, vs NASH group)
1 | CC(C)c1c(Cc2ccc(S(C)(=O)=O)nc2)c2ncccc2n1C/C(F)=C/CN [PXS‐5338] | irreversibly inhibits the enzyme | prolonged compound half‐life | good oral bioavailability | – | – | – | – | –
2 | CC(C)c1c(Cc2ccc(S(C)(=O)=O)nc2)c2ncccc2n1C/C(F)=C/CN [PXS-5338] | – | – | – | significant reduction in collagen content | significantly attenuated fibrosis | reduction in hepatocyte ballooning | reduction in immature and mature crosslinks | significantly decreased NASH scoring
